# Assay results: patent publication US20240400560A1, “BICYCLIC HETEROCYCLIC DERIVATIVE HAVING VIRAL GROWTH INHIBITORY ACTIVITY AND PHARMACEUTICAL COMPOSITION CONTAINING SAME” (Shionogi & Co., Ltd., priority 2021, published 2024)
# Columns and labels:
# SARS-CoV-2 = assay: Inhibitory activity of cytopathic effect (CPE) in Vero E6/TMPRSS2 cells; type: cell-based
# SARS-CoV-2 3CL protease = SARS-CoV-2 3CL protease (Severe acute respiratory syndrome coronavirus 2, UniProt P0DTD1); assay: Inhibitory activity test against SARS-CoV-2 3CL proteases; type: biochemical; conditions: read-out: IC50 (50% SARS-CoV-2 3CL protease inhibitory concentration)
# [1] = Severe acute respiratory syndrome coronavirus 2, VeroE6/TMPRSS2, 72 h, 50% SARS-CoV-2 infected cell death inhibitory concentration, CellTiter-Glo 2.0 after 3 days culture
# [2] = Severe acute respiratory syndrome coronavirus 2, VeroE6/TMPRSS2, 50% SARS-CoV-2 infected cell death inhibitory concentration, class symbols
Structure (SMILES),EC50 (SARS-CoV-2; [1]) [nM],IC50 (SARS-CoV-2 3CL protease) [nM],EC50 (SARS-CoV-2; [2]) [nM]
COc1cc(-c2cc3c(cc2Cl)NC(=O)C3)cc2c1c(=O)n(-c1cncc(C)c1)c(=O)n2Cc1cc(F)c(F)c(F)c1 [Compound I-0058],194,1.5,
Cc1cncc(-n2c(=O)c3c(F)cc(-c4cc(C(N)=O)ccc4Cl)cc3n(Cc3cc(F)c(F)c(F)c3)c2=O)c1 [Compound I-0073],,< 100,< 1000
COc1cc(-c2cc3c(cc2Cl)NC(=O)C3)cc2c1c(=O)n(Cc1ncn(C)n1)c(=O)n2Cc1cc(Cl)c(F)cc1F [Compound I-0266],,< 100,< 1000
COc1cc(-c2cc(C(C)=O)ccc2Cl)cc2c1c(=O)n(Cc1ncn(C)n1)c(=O)n2Cc1cc(F)c(F)c(F)c1 [Compound I-0116],1750,12,
COc1cc(-c2cc(C(N)=O)ccc2Cl)cc2c1c(=O)n(-c1cncc(C)c1)c(=O)n2Cc1cc(F)c(F)c(F)c1 [Compound I-0067],,< 100,< 1000
COc1cc(-c2cc(C(=O)NCCN(C)C)ccc2Cl)cc2c1c(=O)n(-c1cncc(C)c1)c(=O)n2Cc1ccc(F)c(C#N)c1 [Compound I-0190],,< 100,1000 to 10000
COc1cc(-c2cc(S(N)(=O)=O)ccc2Cl)cc2c1c(=O)n(-c1cncc(C)c1)c(=O)n2Cc1ccc(F)c(C#N)c1 [Compound I-0066],11100,5,
